From patent US20170112873A1, “Method and Topical Composition for the Treatment of Rosacea and Skin Erythema Using Selenium Sulfide” (priority 2015, published 2017)

Test system: facial Rosacea
Experiment: clinical type observations of topical application in facial Rosacea
Type: in vivo

S=[Se]=S [selenium sulfide]
redness, small dilated blood vessels and small red bumps characterizing the facial Rosacea (clinical type observations): observed to be decreased | effectiveness in facial Rosacea (fluid form selenium sulfide of 1% strength): Effective in most instances | redness, flushing and inflammation associated with facial Rosacea and skin erythema (topical application, clinical type observations): effective in significantly reducing
